Experimental data reported in patent US20240109918A1, “HETEROCYCLIC COMPOUNDS AND USES THEREOF” (Kumquat Biosciences Inc., priority 2022, published 2024).

How the values were obtained:
KRASwt = biological target: T1, KRASwt (Homo sapiens, UniProt P01116); test: Bio-Biochem-PPI-HTRF Ras-SOS1 interaction assay (KRAS wt); type: biochemical; conditions: 5 nM
T1 construct: made in house; host or cells: E. coli BL21 (DE3)
Description: (§1) The assay buffer can contain −5 mM HEPES pH 7.4, ˜150 mM NaCl, ˜ 1 mM DTT, 0.05% BSA and 0.0025% (v/v) Igepal. A Ras working solution is prepared in an assay buffer containing typically a suitable amount of the protein construct (e.g., GST-tagged K-Ras mutant) and the FRET donor (e.g., antiGST-Eu(K) from Cisbio, France). A SOS1 working solution is prepared in an assay buffer containing suitable amount of the protein construct (e.g., His-hSOS1) and the FRET acceptor (e.g., anti-6His-XL665 from Cisbio, France). A suitable amount of the protein construct will depend on the range of activity or range of IC50 values being detected or under investigation. For detecting IC50 within a range of 500 nM, the protein constructs of the same range of molarity can be utilized. […] A fixed volume of DMSO with or without test compound is transferred into a 384-well plate. Ras working solution is added to all wells of the test plate. SOS1 working solution is added to all wells except for those that are subsequently filled the inhibitor control solution. Upon incubation for about 10 minutes or longer, the fluorescence is measured with a M1000Pro plate reader (Tecan) using HTRF detection (excitation 337 nm, emission 1:620 nm, emission 2: 665 nm). Compounds are tested in duplicates at different concentrations (for example, 10 μM, 2.5 μM, 0.63 μM, 0.16 μM, 0.04 μM, 0.01 μM test compound). The ratiometric data (i.e., emission 2 divided by emission 1) is used to calculate IC50 values against Ras using GraphPad Prism (GraphPad software). Following this general procedure, samples were tested with or without a subject compound disclosed herein including compounds exemplified in Table 1 to assess their abilities to inhibit a mutant K-Ras relative to another mutant K-Ras or wildtype K-Ras. Signaling output measured in terms of IC50 values can be obtained, a ratio of IC50 against one mutant relative to another mutant can be calculated. For instance, a selective reduction of K-Ras G12D signaling output can be evidenced by a ratio greater than one. In particular, a selective reduction of K-Ras G12D signaling relative to K-Ras WT signaling is evidenced as the ratio of IC50 (against K-Ras WT) to IC50 (against K-Ras G12D) is greater than 1.

KRASG12D = biological target: T2, KRASG12D (Homo sapiens, UniProt P01116, G12D); test: Bio-Biochem-PPI-HTRF Ras-SOS1 interaction assay (KRAS G12D); type: biochemical; conditions: 5 nM
T2 construct: made in house; host or cells: E. coli BL21 (DE3)
Description: as §1

T2 sequence (P01116 1-188 isoform P01116-2 G12D): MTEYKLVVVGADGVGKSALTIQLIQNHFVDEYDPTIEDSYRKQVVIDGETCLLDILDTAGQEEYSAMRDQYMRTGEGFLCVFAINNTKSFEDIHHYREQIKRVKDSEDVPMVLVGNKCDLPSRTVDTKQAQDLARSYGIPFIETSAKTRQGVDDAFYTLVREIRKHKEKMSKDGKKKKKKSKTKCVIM
T1 sequence (P01116 1-188 isoform P01116-2): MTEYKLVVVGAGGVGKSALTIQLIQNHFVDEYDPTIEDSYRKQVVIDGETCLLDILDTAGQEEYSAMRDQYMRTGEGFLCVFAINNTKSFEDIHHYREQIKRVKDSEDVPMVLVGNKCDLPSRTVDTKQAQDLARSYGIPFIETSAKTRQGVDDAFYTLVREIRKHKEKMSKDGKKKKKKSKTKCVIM

IC50 (KRASwt) [µM]	IC50 (KRASG12D) [µM]	SMILES
< 5	< 5	C[C@H](Oc1nc(N2CCOC3(CNC3)C2)c2cc(Cl)c(-c3ccc(F)c4sc(N)c(C#N)c34)c(F)c2n1)[C@@H]1CCCN1C [compound 110, 2-amino-4-(6-chloro-8-fluoro-2-((S)-1-((S)-1-methylpyrrolidin-2-yl)ethoxy)-4-(5-oxa-2,8-diazaspiro[3.5]nonan-8-yl)quinazolin-7-yl)-7-fluorobenzo[b]thiophene-3-carbonitrile]
≥ 5	≥ 5	Cc1ccnc(C(C)C)c1-n1c(=O)nc(N2CCOC3(CNC3)C2)c2cc(F)c(-c3ccc(F)c4sc(N)c(C#N)c34)nc21 [compound 108, 2-amino-7-fluoro-4-(6-fluoro-1-(2-isopropyl-4-methylpyridin-3-yl)-2-oxo-4-(5-oxa-2,8-diazaspiro[3.5]nonan-8-yl)-1,2-dihydropyrido[2,3-d]pyrimidin-7-yl)benzo[b]thiophene-3-carbonitrile]
< 5	< 5	CC1(C)CN(c2nc(OC[C@@]34CCCN3C[C@H](F)C4)nc3c(F)c(-c4ccc(F)c5sc(N)nc45)c(Cl)cc23)CC2(CNC2)O1 [compound 166, 4-(6-chloro-4-(6,6-dimethyl-5-oxa-2,8-diazaspiro[3.5]nonan-8-yl)-8-fluoro-2-(((2R,7aS)-2-fluorotetrahydro-1H-pyrrolizin-7a(5H)-yl)methoxy)quinazolin-7-yl)-7-fluorobenzo[d]thiazol-2-amine]
< 5	< 5	Nc1nc2c(-c3c(Cl)cc4c(N5CCCC6(CCNC6)C5)nc(OC[C@@]56CCCN5C[C@H](F)C6)nc4c3F)ccc(F)c2s1 (stereo partly drawn) [compound 130, 4-(6-chloro-8-fluoro-2-(((2R,7aS)-2-fluorotetrahydro-1H-pyrrolizin-7a(5H)-yl)methoxy)-4-(2,7-diazaspiro[4.5]decan-7-yl)quinazolin-7-yl)-7-fluorobenzo[d]thiazol-2-amine]
< 5	< 5	C[C@H](O)C(=O)N1CC2(CCCCN(c3nc(OC[C@@]45CCCN4C[C@H](F)C5)nc4c(F)c(-c5ccc(F)c6sc(N)c(C#N)c56)c(Cl)cc34)C2)C1 [compound 318, 2-amino-4-(6-chloro-8-fluoro-2-(((2R,7aS)-2-fluorotetrahydro-1H-pyrrolizin-7a(5H)-yl)methoxy)-4-(2-((S)-2-hydroxypropanoyl)-2,6-diazaspiro[3.6]decan-6-yl)quinazolin-7-yl)-7-fluorobenzo[b]thiophene-3-carbonitrile]
< 5	< 5	CC1(C(=O)N2CC3(CCCCN(c4nc(OC[C@@]56CCCN5C[C@H](F)C6)nc5c(F)c(-c6ccc(F)c7sc(N)c(C#N)c67)c(Cl)cc45)C3)C2)CC1(F)F (stereo partly drawn) [compound 277, 2-amino-4-(6-chloro-4-(2-(2,2-difluoro-1-methylcyclopropane-1-carbonyl)-2,6-diazaspiro[3.6]decan-6-yl)-8-fluoro-2-(((2R,7aS)-2-fluorotetrahydro-1H-pyrrolizin-7a(5H)-yl)methoxy)quinazolin-7-yl)-7-fluorobenzo[b]thiophene-3-carbonitrile]
< 5	< 5	CC(C)NC(=O)N1CC2(CC(Nc3nc(OCC45CCCN4C[C@H](F)C5)nc4c(F)c(-c5ccc(F)c6sc(N)c(C#N)c56)c(Cl)cc34)C2)C1 (stereo partly drawn) [compound 151, 6-((7-(2-amino-3-cyano-7-fluorobenzo[b]thiophen-4-yl)-6-chloro-8-fluoro-2-(((2R)-2-fluorotetrahydro-1H-pyrrolizin-7a(5H)-yl)methoxy)quinazolin-4-yl)amino)-N-isopropyl-2-azaspiro[3.3]heptane-2-carboxamide]
< 5	< 5	COc1nc(N2CCCCC3(CN(C(C)=O)C3)C2)c2cc(Cl)c(-c3ccc(F)c4sc(N)c(C#N)c34)c(F)c2n1 [compound 256, 4-(4-(2-acetyl-2,6-diazaspiro[3.6]decan-6-yl)-6-chloro-8-fluoro-2-methoxyquinazolin-7-yl)-2-amino-7-fluorobenzo[b]thiophene-3-carbonitrile]
